# Data as given in patent publication US20240398768A1, “METHODS OF TREATING SOLID TUMOR USING HETEROAROMATIC MACROCYCLIC ETHER COMPOUNDS” (Nuvalent, Inc., priority 2021, published 2024).
# System: NIH3T3 cells expressing ROS1 fusions with G2032R
# Assay: Anchorage-independent colony formation assay
# Format: cell-based
# Conditions: at 100 nM
# Procedure: Each inhibitor was paired with its own DMSO condition to serve as an accurate control. NIH3T3 cells expressing CD74-ROS1 or EZR-ROS1 wild-type or mutant fusions were plated in 0.4% agarose in complete medium at a density of 2,000 cells per 0.5 mL of agarose with DMSO or inhibitor at identical concentration to the bottom layer. Plates were incubated for 4 weeks, and each well was fed 3× per week with 75 μL of complete medium with or without inhibitor to match each plated condition to prevent drying of the agarose. Plates were read after 3 and 4 weeks using a GelCount™ (Oxford Optronix). Colony counts were averaged by condition and normalized to the colony counts from paired DMSO conditions. Data analysis and visualization was performed using Microsoft Excel and GraphPad Prism.
smiles,measurement,value
"CN1CCN(c2ccc(C(=O)Nc3n[nH]c4ccc(Cc5cc(F)cc(F)c5)cc34)c(NC3CCOCC3)c2)CC1 [Entrectinib, reference compound]",inhibition of colony formation,weaker effects
